Experimental data as given in patent US20070275936A1, “Formulations and Treatment Methods” (priority 1998, published 2007).
Read-outs that look alike come from different tables or passages of the source.

Experiments:
Assay type in all cases: in vivo
[1] = Oral bioavailability of BrEA formulations in rats
Description: In vivo experiments were conducted to determine the bioavailability of BrEA via oral administration using different formulations. BrEA was (1) solubilized in soya oil, vitamin E oil, a mixture of vitamin E and cremophore or (2) BrEA was micronized and combined with or without a surfactant. These formulations are described below. The formulations were administered orally to rats and BrEA levels were determined in the blood, liver, spleen, kidney, and the lymph nodes. In the studies using micronized BrEA, the brain was evaluated for drug uptake. Twenty-four hour urine and feces were collected when BrEA was solubilized in vitamin E and soya oils and vitamin E mixed with Cremophore. The data from these studies indicate that BrEA enters into the lymphatics but is eliminated rapidly from the other tissues. The amount of ^14C radioactivity recovered in the feces 24 hours after administration was 78 to 83%.
BrEA (5 mg in 1.0 mL of soya oil or vitamin E oil) supplemented with ^14C-labelled BrEA was administered intragastrically to rats. Solubilization of BrEA in the vitamin E or soya oil was facilitated with 50 μL ethanol. Animals (3/time point) were assayed at 1.5, 3, 5.5, and 24 hours after administration and the ^14C-radioactivity was measured in the blood, liver, spleen, kidney, lymph nodes and 24 hour feces and urine. […] The uptake is greater with soya oil than vitamin E oil in the blood, liver, and lymph nodes.
BrEA (5 mg in 1.0 mL of a vitamin E and cremophore) supplemented with ^14C-labelled BrEA was administered intragastrically to rats. Solubilization of BrEA in the vitamin E-cremophore mixture was facilitated by the adding 60 μL ethanol. Animals (4/time point) were sacrificed at 2, 3, 5.5, and 24 hours and ^14C-radioactivity was measured in the blood, liver, spleen, kidney, lymph nodes and 24 hour feces and urine. […] Judging from the values in plasma, liver and lymph nodes, it appears that drug uptake is slower compared with soy oil or vitamin E and its presence in the tissues is more persistent.
Rats, in groups of three males, were orally administered 1.0 mL of 0.9% NaCl containing 10 or 32 mg BrEA micronized with a surfactant, Synperonic PE/F 127 (2.5% wt/wt). Rats were examined at 1.5, 5 and 24 hours after administration. Blood, liver, spleen, kidney, lymph nodes, and brain were assayed for ^14C radioactivity. The levels of BrEA in the blood, in comparison to the experiments with BrEA in Vitamin E oil and soya, were higher, 0.3% at 1.5 hours, and increased after 5 hours to 0.8% and 0.9% of the 10 and 32 mg dose, respectively. Additionally, the values in the lymph nodes were similar to those measured at 1.5 hours and the levels were sustained at 5 hours (5.3 and 5.0%) and 24 hours (3.7 and 3.1%) for the 10 and 32 mg dose, respectively (refer to Table 6).
In a repeated dose experiment, rats were intragastrically administered 1.0 mL 0.9% NaCl containing 2 mg BrEA micronized with Synperonic PE/F 127 (2.5% wt/wt) every 6 to 16 hours. Rats (3/time point) were sacrificed at 40, 72, 84, 90 and 96 hours after the first administration. Blood, liver, spleen, kidney and lymph nodes were assayed for ^14C radioactivity.
Rats, in groups of three males, were orally administered 1.0 mL of 0.9% NaCl containing 2, 4 or 10 mg BrEA micronized without a surfactant. Rats were sacrificed at 1.5, 5 and 24 hours after administration and blood, liver, spleen, kidney, lymph nodes and brain were assayed for ^14C radioactivity. The concentration of BrEA micronized without a surfactant in the observed tissues was lower than BrEA plus a surfactant.

HIV = HIV RNA level by PCR in HIV/HCV infected patient dosed I.V. with BrEA; conditions: predosing 5.2
Description: A patient infected with HIV and HCV was dosed I.V. with BrEA for 3 consecutive days using a formulation that contained 20 mg/mL BrEA in 45% w/v hydroxypropyl-β-cyclodextrin and saline. Four mL of the formulation (80 mg BrEA) was administered to the patient every 4 hours during the 3 day treatment period. The patient's predosing HCV level was 6.5 Log10 as measured by PCR and the HCV level was 6.2 Log10 on the first day of dosing, 5.5 Log10 on the 3rd day of dosing and 4.9 Log10 three days after the last dose was administered. HIV RNA levels as measured by PCR was 5.2 Log10 (predosing), 5.8 Log10 (first day), 5.9 Log10 (third day) and 5.4 Log10 (day 6). The NK cell counts (cells/mm^3) were 28, 41 and 38 at predosing, day 0 and day 3.

[2] = Pharmacokinetics of BrEA after subcutaneous dose in rats; conditions: for half-life: rat, plasma, sc, biphasic elimination
Description: BrEA was administered subcutaneously to rats using the formulation of example 1. Approximately 90% of the drug left the injection site within 24 hours of administration, and reached a maximum concentration in the plasma of about 0.2% of the injected dose at one hour post administration. Elimination from the plasma was biphasic, with half-lives of about 12 and 72 hours respectively. […] A study is also performed in Rhesus Monkeys with the example 1 formulation to determine plasma pharmacokinetics.

[3] = Plasma pharmacokinetics of 14C BrEA in Rhesus Monkeys; conditions: 1 mg/kg s.c. 14C BrEA
Description: A pharmacokinetic analysis of ^14C BrEA in plasma was conducted in two female Rhesus Monkeys. Trace labeled compound (16α-bromo-3-beta-hydroxy-5α-[4-^14C]-androstan-17-one [50 mCi/mmole]) was used at a dose of 1 mg/kg as a subcutaneous injection in the scapular region using an injection volume of 1 mL/kg. The BrEA was formulated in 25% polyethylene glycol 300, 12.5% absolute ethanol, 5% benzyl benzoate, and qs with propylene glycol. 40 μCi were injected per animal. Blood samples were taken at 0, 0.5, 1, 2, 4, 8, and 24 hours for determination of ^14C activity. The radioactivity in the plasma rose to near peak concentration in 8 hours and remained at approximately the same level through the end of the study at 24 hours.

[4] = micronized with surfactant, 10 mg dose, 5 hours
[5] = micronized with surfactant, 32 mg dose, 5 hours

SMILES: C[C@]12CC[C@H](O)C[C@@H]1CC[C@@H]1[C@@H]2CC[C@]2(C)C(=O)[C@H](Br)C[C@@H]12 [BrEA, 16α-bromo-3β-hydroxy-5α-androstane-17-one]
- levels of BrEA in the blood ([1]; BrEA micronized with Synperonic PE/F 127, 1.5 hours): 0.3%
- levels of BrEA in the blood [1, 4]: 0.8%
- values in the lymph nodes [1, 4]: 5.3%
- values in the lymph nodes ([1]; micronized with surfactant, 10 mg dose, 24 hours): 3.7%
- levels of BrEA in the blood [1, 5]: 0.9%
- values in the lymph nodes [1, 5]: 5.0%
- values in the lymph nodes ([1]; micronized with surfactant, 32 mg dose, 24 hours): 3.1%
- HIV RNA levels by PCR (HIV; day 6): 5.4 Log10
- HIV RNA levels by PCR (HIV; first day): 5.8 Log10
- HIV RNA levels by PCR (HIV; third day): 5.9 Log10
- half-life ([2]; rats s.c., read-out: plasma elimination half-life, first phase (converted)): ~12 h
- half-life ([2]; rats s.c., read-out: plasma elimination half-life, second phase (converted)): ~72 h
- accumulation in organs ([2]; rats s.c.): did not accumulate to a significant extent in any major organ
- route of excretion ([2]; rats s.c.): excreted primarily in the feces
- time of maximum concentration in the plasma ([2]; rats s.c.): one
- maximum concentration in the plasma ([2]; rats s.c., at one hour post administration): about 0.2 % of the injected dose
- drug left the injection site ([2]; rats, subcutaneous, formulation of example 1, within 24 hours): Approximately 90%
- time for plasma radioactivity to rise to near peak concentration [3]: 8 h
